Measured values taken from ChEMBL document CHEMBL3864146, “5-Alkyloxytryptamines are membrane-targeting, broad-spectrum antibiotics” (Bioorg Med Chem Lett, 2016).
The source made the active and inactive calls. No cut-off for these calls is given here.

Assays:
[1] = system: Escherichia coli; assay: Antibacterial activity against Escherichia coli BW25113 after 16 to 18 hrs by micro-dilution method; assay type: functional
[2] = system: Escherichia coli; assay: Antibacterial activity against tolC-deficient Escherichia coli BW25113 after 16 to 18 hrs by micro-dilution method; assay type: functional
[3] = system: Bacillus subtilis; assay: Antibacterial activity against Bacillus subtilis 168 after 16 to 18 hrs by micro-dilution method; assay type: functional; settings: subsp. subtilis str. 168
[4] = system: Pseudomonas aeruginosa; assay: Antibacterial activity against Pseudomonas aeruginosa after 16 to 18 hrs by micro-dilution method; assay type: functional
[5] = system: Salmonella typhimurium; assay: Antibacterial activity against Salmonella typhimurium after 16 to 18 hrs by micro-dilution method; assay type: functional, Salmonella enterica subsp. enterica serovar Typhimurium; settings: Salmonella enterica
[6] = system: Vibrio cholerae; assay: Antibacterial activity against Vibrio cholerae after 16 to 18 hrs by micro-dilution method; assay type: functional
[7] = system: Shigella boydii; assay: Antibacterial activity against Shigella boydii after 16 to 18 hrs by micro-dilution method; assay type: functional
[8] = system: Klebsiella pneumoniae; assay: Antibacterial activity against Klebsiella pneumoniae after 16 to 18 hrs by micro-dilution method; assay type: functional
[9] = system: Klebsiella aerogenes; assay: Antibacterial activity against Enterobacter aerogenes after 16 to 18 hrs by micro-dilution method; assay type: functional
[10] = system: Acinetobacter baumannii; assay: Antibacterial activity against Acinetobacter baumannii after 16 to 18 hrs by micro-dilution method; assay type: functional
[11] = system: Edwardsiella tarda; assay: Antibacterial activity against Edwardsiella tarda after 16 to 18 hrs by micro-dilution method; assay type: functional
[12] = system: Morganella morganii; assay: Antibacterial activity against Morganella morganii after 16 to 18 hrs by micro-dilution method; assay type: functional
[13] = system: Staphylococcus aureus; assay: Antibacterial activity against Staphylococcus aureus after 16 to 18 hrs by micro-dilution method; assay type: functional
[14] = system: Streptococcus pyogenes; assay: Antibacterial activity against Streptococcus pyogenes after 16 to 18 hrs; assay type: functional
[15] = system: Escherichia coli; assay: Bactericidal activity against Escherichia coli BW25113 after 22 hrs by micro-dilution method; assay type: functional; settings: BW25113, 22 h
[16] = system: Escherichia coli; assay: Bactericidal activity against tolC-deficient Escherichia coli BW25113 after 22 hrs by micro-dilution method; assay type: functional; settings: BW25113, 22 h
[17] = system: Bacillus subtilis; assay: Bactericidal activity against Bacillus subtilis 168 after 22 hrs by micro-dilution method; assay type: functional; settings: subsp. subtilis str. 168, 22 h
[18] = system: Pseudomonas aeruginosa; assay: Bactericidal activity against Pseudomonas aeruginosa after 22 hrs by micro-dilution method; assay type: functional
[19] = system: Salmonella typhimurium; assay: Bactericidal activity against Salmonella typhimurium after 22 hrs by micro-dilution method; assay type: functional, Salmonella enterica subsp. enterica serovar Typhimurium; settings: Salmonella enterica
[20] = system: Vibrio cholerae; assay: Bactericidal activity against Vibrio cholerae after 22 hrs by micro-dilution method; assay type: functional
[21] = system: Shigella boydii; assay: Bactericidal activity against Shigella boydii after 22 hrs by micro-dilution method; assay type: functional
[22] = system: Klebsiella pneumoniae; assay: Bactericidal activity against Klebsiella pneumoniae after 22 hrs by micro-dilution method; assay type: functional
[23] = system: Klebsiella aerogenes; assay: Bactericidal activity against Enterobacter aerogenes after 22 hrs by micro-dilution method; assay type: functional
[24] = system: Acinetobacter baumannii; assay: Bactericidal activity against Acinetobacter baumannii after 22 hrs by micro-dilution method; assay type: functional
[25] = system: Edwardsiella tarda; assay: Bactericidal activity against Edwardsiella tarda after 22 hrs by micro-dilution method; assay type: functional
[26] = system: Morganella morganii; assay: Bactericidal activity against Morganella morganii after 22 hrs by micro-dilution method; assay type: functional
[27] = system: Staphylococcus aureus; assay: Bactericidal activity against Staphylococcus aureus after 22 hrs by micro-dilution method; assay type: functional
[28] = system: Streptococcus pyogenes; assay: Bactericidal activity against Streptococcus pyogenes after 22 hrs; assay type: functional
[29] = system: Escherichia coli; assay: Ratio of MBC to MIC for Escherichia coli BW25113 after 16 to 18 hrs by micro-dilution method; assay type: functional
[30] = system: Escherichia coli; assay: Ratio of MBC to MIC for tolC-deficient Escherichia coli BW25113; assay type: functional
[31] = system: Bacillus subtilis; assay: Ratio of MBC to MIC for Bacillus subtilis 168; assay type: functional, subsp. subtilis str. 168
[32] = system: Pseudomonas aeruginosa; assay: Ratio of MBC to MIC for Pseudomonas aeruginosa; assay type: functional
[33] = system: Salmonella typhimurium; assay: Ratio of MBC to MIC for Salmonella typhimurium; assay type: functional, Salmonella enterica subsp. enterica serovar Typhimurium
[34] = system: Vibrio cholerae; assay: Ratio of MBC to MIC for Vibrio cholerae; assay type: functional
[35] = system: Shigella boydii; assay: Ratio of MBC to MIC for Shigella boydii; assay type: functional
[36] = system: Klebsiella pneumoniae; assay: Ratio of MBC to MIC for Klebsiella pneumoniae; assay type: functional
[37] = system: Klebsiella aerogenes; assay: Ratio of MBC to MIC for Enterobacter aerogenes; assay type: functional
[38] = system: Acinetobacter baumannii; assay: Ratio of MBC to MIC for Acinetobacter baumannii; assay type: functional
[39] = system: Edwardsiella tarda; assay: Ratio of MBC to MIC for Edwardsiella tarda; assay type: functional
[40] = system: Morganella morganii; assay: Ratio of MBC to MIC for Morganella morganii; assay type: functional
[41] = system: Staphylococcus aureus; assay: Ratio of MBC to MIC for Staphylococcus aureus; assay type: functional
[42] = system: Streptococcus pyogenes; assay: Ratio of MBC to MIC for Streptococcus pyogenes; assay type: functional
[43] = system: Escherichia coli; assay: Induction of membrane permeabilization in Escherichia coli BW25113 at MIC to 2 times MIC after 5 mins by propidium iodide staining-based flow cytometric method; assay type: functional
[44] = system: Escherichia coli; assay: Induction of membrane permeabilization in Escherichia coli BW25113 at MIC after 15 mins by propidium iodide staining-based fluorescence microplate reader method relative to 50% ethanol; assay type: functional
[45] = system: Escherichia coli; assay: Antibacterial activity against Escherichia coli BW25113 by multiple copy suppression assay; assay type: functional
[46] = system: Escherichia coli; assay: Antibacterial activity against Escherichia coli 5-NOT mutant 8 harboring ydeA gene mutation by multiple copy suppression assay; assay type: functional
[47] = system: Escherichia coli; assay: Antibacterial activity against Escherichia coli 5-NOT mutant 8 harboring pykA gene mutation by multiple copy suppression assay; assay type: functional
[48] = system: Escherichia coli; assay: Antibacterial activity against Escherichia coli 5-NOT mutant 8 harboring otsA gene mutation by multiple copy suppression assay; assay type: functional
[49] = system: Escherichia coli; assay: Antibacterial activity against Escherichia coli 5-NOT mutant 15-1 harboring ydeA gene mutation by multiple copy suppression assay; assay type: functional
[50] = system: Escherichia coli; assay: Antibacterial activity against Escherichia coli 5-NOT mutant 15-1 harboring thrS gene mutation by multiple copy suppression assay; assay type: functional
[51] = system: Escherichia coli; assay: Antibacterial activity against Escherichia coli 5-NOT mutant 15-1 harboring pykA gene mutation by multiple copy suppression assay; assay type: functional
[52] = system: Escherichia coli; assay: Adjuvant activity assessed as potentiation of chloramphenicol-induced antibacterial activity against Escherichia coli BW25113 at 0.5 times MIC after 16 to 18 hrs by checkerboard assay (reference value: 8 ng/ml); assay type: functional
[53] = system: Escherichia coli; assay: Adjuvant activity assessed as potentiation of chloramphenicol-induced antibacterial activity against Escherichia coli BW25113 at 0.25 times MIC after 16 to 18 hrs by checkerboard assay (reference value: 8 ng/ml); assay type: functional
[54] = system: Escherichia coli; assay: Adjuvant activity assessed as potentiation of tetracycline-induced antibacterial activity against Escherichia coli BW25113 at 0.5 times MIC after 16 to 18 hrs by checkerboard assay (reference value: 2 ng/ml); assay type: functional
[55] = system: Escherichia coli; assay: Adjuvant activity assessed as potentiation of tetracycline-induced antibacterial activity against Escherichia coli BW25113 at 0.25 times MIC after 16 to 18 hrs by checkerboard assay (reference value: 2 ng/ml); assay type: functional
[56] = system: Escherichia coli; assay: Adjuvant activity assessed as potentiation of ciprofloxacin-induced antibacterial activity against Escherichia coli BW25113 at 0.5 times MIC after 16 to 18 hrs by checkerboard assay (reference value: 13 ng/ml); assay type: functional
[57] = system: Escherichia coli; assay: Adjuvant activity assessed as potentiation of ciprofloxacin-induced antibacterial activity against Escherichia coli BW25113 at 0.25 times MIC after 16 to 18 hrs by checkerboard assay (reference value: 13 ng/ml); assay type: functional
[58] = system: Escherichia coli; assay: Adjuvant activity assessed as potentiation of rifampicin-induced antibacterial activity against Escherichia coli BW25113 at 0.5 times MIC after 16 to 18 hrs by checkerboard assay (reference value: 8 ng/ml); assay type: functional
[59] = system: Escherichia coli; assay: Adjuvant activity assessed as potentiation of rifampicin-induced antibacterial activity against Escherichia coli BW25113 at 0.25 times MIC after 16 to 18 hrs by checkerboard assay (reference value: 8 ng/ml); assay type: functional
[60] = organism: Homo sapiens; assay: Selectivity ratio of Ki for 5-HT1A receptor (unknown origin) to Ki for human 5-HT1D receptor

Compound CCCCCCCCCOc1ccc2[nH]cc(CCN)c2c1.Cl has an MIC [1] of 6 µg/mL, an MIC [2] of 1.5 µg/mL and an MIC [3] of 0.76 µg/mL. For the same compound, the MIC [4] was 24 to 96 µg/mL, the MIC [5] was 6 to 24 µg/mL and the MIC [6] was 6 to 24 µg/mL. For the same compound, the MIC [7] was 6 µg/mL, the MIC [8] was 6 µg/mL and the MIC [9] was 6 to 24 µg/mL. The MIC [10] was 6 µg/mL, the MIC [11] was 6 to 12 µg/mL and the MIC [12] was 12 to 24 µg/mL. It also gave an MIC [13] of 6 µg/mL, an MIC [14] of 24 µg/mL and an MBC [15] of 12 µg/mL. The MBC [16] was 6 µg/mL, the MBC [17] was 0.76 µg/mL and the MBC [18] was 96 µg/mL. It also gave an MBC [19] of 24 µg/mL, an MBC [20] of 24 µg/mL and an MBC [21] of 6 µg/mL. For the same compound, the MBC [22] was 6 µg/mL, the MBC [23] was greater than 24 µg/mL and the MBC [24] was 6 µg/mL. The MBC [25] was 12 µg/mL, the MBC [26] was 24 µg/mL and the MBC [27] was 6 µg/mL. The MBC [28] was 24 µg/mL, the Ratio [29] was 2 and the Ratio [30] was 4. For the same compound, the Ratio [31] was 1, the Ratio [32] was 4 and the Ratio [33] was 4. The Ratio [34] was 4, the Ratio [35] was 1 and the Ratio [36] was 1. The Ratio [37] was greater than 4, the Ratio [38] was 1 and the Ratio [39] was 2. For the same compound, the Ratio [40] was 2, the Ratio [41] was 2 and the Ratio [42] was 1. For the same compound, the Activity [43] was “Active”, the Activity [44] was 100% and the MIC [45] was 80 µM. For the same compound, the MIC [46] was 80 µM, the MIC [47] was 80 µM and the MIC [48] was 80 µM. For the same compound, the MIC [49] was 80 µM, the MIC [50] was 80 µM and the MIC [51] was 80 µM. For the same compound, the MIC [52] was 0.008 µg/mL, the MIC [53] was 0.008 µg/mL and the MIC [54] was 0.002 µg/mL. It also gave an MIC [55] of 0.002 µg/mL, an MIC [56] of 0.013 µg/mL and an MIC [57] of 0.013 µg/mL. The MIC [58] was 0.008 µg/mL, the MIC [59] was 0.008 µg/mL and the Ratio Ki [60] was 300.
